ChEMBL document CHEMBL4627352, “New acrylamide-sulfisoxazole conjugates as dihydropteroate synthase inhibitors” (Bioorg Med Chem, 2020)
Converted amounts (≈) assume the structure as drawn. The source made the active and inactive calls. The rule behind the calls is not given here.

Key:
[1] = test system: Staphylococcus epidermidis; assay: Inhibition of DHPS in Staphylococcus epidermidis assessed as antibacterial activity by measuring inhibition of bacterial growth incubated for 24 hrs by microbroth dilution method
Proteus vulgaris [2] = assay: Inhibition of DHPS in Proteus vulgaris assessed as antibacterial activity by measuring inhibition zone at 5 mg/mL incubated for 24 hrs by disk diffusion method
[3] = test system: Escherichia coli ATCC 25922; assay: Inhibition of DHPS in Escherichia coli ATCC 25922 assessed as inhibition of bacterial growth incubated for 24 hrs in presence of folate precursor, pABA by microbroth dilution method
Bacillus subtilis [4] = assay: Inhibition of DHPS in Bacillus subtilis assessed as antibacterial activity by measuring inhibition zone at 5 mg/mL incubated for 24 hrs by disk diffusion method
[5] = test system: Staphylococcus epidermidis; assay: Inhibition of DHPS in Staphylococcus epidermidis assessed as antibacterial activity by measuring inhibition zone at 5 mg/mL incubated for 24 hrs by disk diffusion method
[6] = test system: Escherichia coli ATCC 25922; assay: Inhibition of DHPS in Escherichia coli ATCC 25922 assessed as inhibition of bacterial growth incubated for 24 hrs in presence of folate dependent metabolite, methionine by microbroth dilution method
Klebsiella pneumoniae [7] = assay: Inhibition of DHPS in Klebsiella pneumoniae assessed as antibacterial activity by measuring inhibition zone at 5 mg/mL incubated for 24 hrs by disk diffusion method
[8] = test system: Syncephalastrum racemosum; assay: Inhibition of DHPS in Syncephalastrum racemosum assessed as antifungal activity by measuring inhibition zone at 5 mg/mL incubated for 48 hrs by disk diffusion method
Streptococcus pneumoniae [9] = assay: Inhibition of DHPS in Streptococcus pneumoniae assessed as antibacterial activity by measuring inhibition zone at 5 mg/mL incubated for 24 hrs by disk diffusion method
Geotrichum candidum [10] = assay: Inhibition of DHPS in Geotrichum candidum assessed as antifungal activity by measuring inhibition zone at 5 mg/mL incubated for 48 hrs by disk diffusion method
Klebsiella pneumoniae [11] = assay: Inhibition of DHPS in Klebsiella pneumoniae assessed as antibacterial activity by measuring inhibition of bacterial growth incubated for 24 hrs by microbroth dilution method
Escherichia coli [12] = assay: Inhibition of DHPS in Escherichia coli assessed as antibacterial activity by measuring inhibition zone at 5 mg/mL incubated for 24 hrs by disk diffusion method
Aspergillus fumigatus [13] = assay: Inhibition of DHPS in Aspergillus fumigatus assessed as antifungal activity by measuring inhibition zone at 5 mg/mL incubated for 48 hrs by disk diffusion method
Geotrichum candidum [14] = assay: Inhibition of DHPS in Geotrichum candidum assessed as antifungal activity by measuring inhibition of fungal growth incubated for 48 hrs by microbroth dilution method
[15] = test system: Syncephalastrum racemosum; assay: Inhibition of DHPS in Syncephalastrum racemosum assessed as antifungal activity by measuring inhibition of fungal growth incubated for 48 hrs by microbroth dilution method
Streptococcus pneumoniae [16] = assay: Inhibition of DHPS in Streptococcus pneumoniae assessed as antibacterial activity by measuring inhibition of bacterial growth incubated for 24 hrs by microbroth dilution method
Aspergillus fumigatus [17] = assay: Inhibition of DHPS in Aspergillus fumigatus assessed as antifungal activity by measuring inhibition of fungal growth incubated for 48 hrs by microbroth dilution method
Escherichia coli [18] = assay: Inhibition of DHPS in Escherichia coli assessed as antibacterial activity by measuring inhibition of bacterial growth incubated for 24 hrs by microbroth dilution method
Bacillus subtilis [19] = assay: Inhibition of DHPS in Bacillus subtilis assessed as antibacterial activity by measuring inhibition of bacterial growth incubated for 24 hrs by microbroth dilution method
Aspergillus fumigatus [20] = assay: Potency index, ratio of sulfisoxazole MIC to compound MIC for Aspergillus fumigatus assessed as inhibition of DHPS-mediated fungal growth incubated for 48 hrs by microbroth dilution method
hTERT-BJ = assay: Cytotoxicity against human hTERT-BJ1 cells at 50 uM by acid phosphatase assay relative to control; format: cell-based
Proteus vulgaris [21] = assay: Inhibition of DHPS in Proteus vulgaris assessed as antibacterial activity by measuring inhibition of bacterial growth incubated for 24 hrs by microbroth dilution method

Molecule	MIC [1]	inhibition zone (IZ) (Proteus vulgaris [2])	inhibition [3]	inhibition zone (IZ) (Bacillus subtilis [4])	inhibition zone (IZ) [5]	inhibition [6]	inhibition zone (IZ) (Klebsiella pneumoniae [7])	inhibition zone (IZ) [8]	inhibition zone (IZ) (Streptococcus pneumoniae [9])	inhibition zone (IZ) (Geotrichum candidum [10])	MIC (Klebsiella pneumoniae [11])	inhibition zone (IZ) (Escherichia coli [12])	inhibition zone (IZ) (Aspergillus fumigatus [13])	MIC (Geotrichum candidum [14])	MIC [15]	MIC (Streptococcus pneumoniae [16])	MIC (Escherichia coli [18])	MIC (Bacillus subtilis [19])	other results
CC(=O)OC[C@H]1O[C@@H](S/C(Nc2ccccc2)=C(\C#N)C(=O)Nc2ccc(S(=O)(=O)Nc3onc(C)c3C)cc2)[C@H](OC(C)=O)[C@@H](OC(C)=O)[C@@H]1OC(C)=O	15.6 mg/L (≈ 19.5 µM)	8.3 mm	inactive	12.4 mm	18.9 mm	inactive	14.2 mm	inactive	10.6 mm	inactive	62.5 mg/L (≈ 78.1 µM)	10.6 mm	inactive						
CCS/C(Nc1ccccc1)=C(\C#N)C(=O)Nc1ccc(S(=O)(=O)Nc2onc(C)c2C)cc1		inactive	inactive	11.2 mm	10.1 mm	inactive	inactive	inactive	inactive	inactive		inactive	inactive						
C=CCN/C(SC)=C(/C#N)C(=O)Nc1ccc(S(=O)(=O)Nc2onc(C)c2C)cc1		inactive	inactive	inactive	inactive	inactive	inactive	15.7 mm	inactive	18.2 mm		inactive	12.6 mm	15.6 mg/L (≈ 34.9 µM)	62.5 mg/L (≈ 140 µM)				
Cc1noc(NS(=O)(=O)c2ccc(N)cc2)c1C	7.81 mg/L (≈ 29.2 µM)	inactive		20.8 mm	17.5 mm		18.2 mm	13.2 mm	19.6 mm	16.8 mm	7.81 mg/L (≈ 29.2 µM)	15.2 mm	15.1 mm	15.6 mg/L (≈ 58.5 µM)	125 mg/L (≈ 468 µM)	1.95 mg/L (≈ 7.29 µM)	62.5 mg/L (≈ 234 µM)	0.98 mg/L (≈ 3.67 µM)	MIC (Aspergillus fumigatus [17]): 62.5 mg/L (≈ 234 µM)
Cc1noc(NS(=O)(=O)c2ccc(NC(=O)/C(C#N)=C(/S)NC34CC5CC(CC(C5)C3)C4)cc2)c1C	62.5 mg/L (≈ 118 µM)	11.7 mm	inactive	17.4 mm	16.2 mm	inactive	16.2 mm	13.6 mm	16.9 mm	14.7 mm	62.5 mg/L (≈ 118 µM)	13.3 mm	14.9 mm	125 mg/L (≈ 237 µM)		31.2 mg/L (≈ 59.2 µM)	62.5 mg/L (≈ 118 µM)	31.2 mg/L (≈ 59.2 µM)	MIC (Aspergillus fumigatus [17]): 62.5 mg/L (≈ 118 µM)
C[C@@H]1[C@H](O)[C@@H](C)/C=C/C=C/C=C/C=C/C=C/C=C/C=C/[C@H](O[C@@H]2O[C@H](C)[C@@H](O)[C@H](N)[C@@H]2O)C[C@@H]2O[C@](O)(C[C@@H](O)C[C@@H](O)[C@H](O)CC[C@@H](O)C[C@@H](O)CC(=O)O[C@H]1C)C[C@H](O)[C@H]2C(=O)O								19.7 mm		28.7 mm			23.7 mm	0.007 mg/L (≈ 0.00758 µM)	7.81 mg/L (≈ 8.45 µM)				MIC (Aspergillus fumigatus [17]): 0.12 mg/L (≈ 0.13 µM)
Cc1noc(NS(=O)(=O)c2ccc(NC(=O)/C(C#N)=C(/S)Nc3ccccc3)cc2)c1C		inactive	inactive	inactive	inactive	inactive	inactive	14.3 mm	inactive	17.1 mm		inactive	16.8 mm	31.2 mg/L (≈ 66.6 µM)	125 mg/L (≈ 266 µM)				Ratio (Aspergillus fumigatus [20]): 2; MIC (Aspergillus fumigatus [17]): 15.6 mg/L (≈ 33.3 µM)
CN/C(SC)=C(/C#N)C(=O)Nc1ccc(S(=O)(=O)Nc2onc(C)c2C)cc1		inactive	inactive	inactive	inactive	inactive	inactive	inactive	inactive	inactive		inactive	inactive						
CS/C(Nc1ccccc1)=C(\C#N)C(=O)Nc1ccc(S(=O)(=O)Nc2onc(C)c2C)cc1		inactive	inactive	inactive	inactive	inactive	inactive	inactive	inactive	inactive		inactive	inactive						
Cc1noc(NS(=O)(=O)c2ccc(NC(=O)c3c(N)n[nH]c3Nc3ccccc3)cc2)c1C	15.6 mg/L (≈ 33.4 µM)	inactive	inactive	12.6 mm	13.4 mm	inactive	inactive	inactive	inactive	inactive		inactive	inactive						
CC(=O)OC[C@H]1O[C@@H](S/C(Nc2ccccc2)=C(\C#N)C(=O)Nc2ccc(S(=O)(=O)Nc3onc(C)c3C)cc2)[C@H](OC(C)=O)[C@@H](OC(C)=O)[C@H]1OC(C)=O	125 mg/L (≈ 156 µM)	11.2 mm	inactive	19.8 mm	14.2 mm	inactive	15.8 mm	inactive	15.1 mm	inactive	62.5 mg/L (≈ 78.1 µM)	13.2 mm	inactive			62.5 mg/L (≈ 78.1 µM)	125 mg/L (≈ 156 µM)	1.95 mg/L (≈ 2.44 µM)	
CCN/C(SC)=C(/C#N)C(=O)Nc1ccc(S(=O)(=O)Nc2onc(C)c2C)cc1																			Activity (hTERT-BJ): 1.1%
CC1(C)S[C@@H]2[C@H](NC(=O)[C@H](N)c3ccccc3)C(=O)N2[C@H]1C(=O)O	0.06 mg/L (≈ 0.172 µM)			32.4 mm	25.4 mm				23.8 mm							0.12 mg/L (≈ 0.343 µM)		0.24 mg/L (≈ 0.687 µM)	
CCN/C(S)=C(/C#N)C(=O)Nc1ccc(S(=O)(=O)Nc2onc(C)c2C)cc1	31.2 mg/L (≈ 74.1 µM)	12.6 mm	inactive	15.4 mm	17.3 mm	inactive	16.4 mm	13.2 mm	13.7 mm	17.1 mm	62.5 mg/L (≈ 148 µM)	14.3 mm	12.6 mm	15.6 mg/L (≈ 37.1 µM)	7.81 mg/L (≈ 18.5 µM)	62.5 mg/L (≈ 148 µM)	62.5 mg/L (≈ 148 µM)	62.5 mg/L (≈ 148 µM)	Activity (hTERT-BJ): 1.7%
GENTAMICIN		23.4 mm					26.3 mm				0.03 mg/L	19.9 mm					1.95 mg/L	0.24 mg/L	MIC (Proteus vulgaris [21]): 0.24 mg/L
CCS/C(NC12CC3CC(CC(C3)C1)C2)=C(\C#N)C(=O)Nc1ccc(S(=O)(=O)Nc2onc(C)c2C)cc1		inactive	inactive	inactive	inactive	inactive	inactive	inactive	inactive	inactive		inactive	inactive						
